From ChEMBL document CHEMBL5385976, “Recognition of arylmethylidene derivatives of imidazothiazolotriazinones as novel tubulin polymerization inhibitors” (RSC Med Chem, 2024)

Experiments:
[1] = tested on: MDA-MB-435; assay: Antiproliferative activity against human MDA-MB-435 cells assessed as mean cell growth at 10 uM incubated for 48 hrs by SRB assay relative to control; assay type: functional
[2] = tested on: SNB-75; assay: Antiproliferative activity against human SNB-75 cells assessed as mean cell growth at 10 uM incubated for 48 hrs by SRB assay relative to control; assay type: functional
[3] = tested on: NCI-H226; assay: Antiproliferative activity against human NCI-H226 cells assessed as mean cell growth at 10 uM incubated for 48 hrs by SRB assay relative to control; assay type: functional
[4] = tested on: Panc02; assay: Inhibition of cell growth in mouse Panc02 cells incubated for 72 hrs by MTT assay; assay type: functional
[5] = tested on: HL-60(TB); assay: Antiproliferative activity against human HL-60(TB) cells assessed as mean cell growth at 10 uM incubated for 48 hrs by SRB assay relative to control; assay type: functional
[6] = tested on: K562; assay: Inhibition of cell growth in human K562 cells incubated for 72 hrs by MTT assay; assay type: functional, cell-based; details: K562, time 72 hrs
[7] = tested on: COLO357; assay: Inhibition of cell growth in human COLO357 cells incubated for 72 hrs by MTT assay; assay type: functional, cell-based; details: COLO357, time 72 hrs
[8] = tested on: Panel NCI-60 (60 carcinoma cell lines); assay: Antiproliferative activity against human panel NCI-60 (60 carcinoma cell lines) assessed as total inhibition of cell growth incubated for 48 hrs by SRB assay; assay type: functional
[9] = tested on: Panel NCI-60 (60 carcinoma cell lines); assay: Antiproliferative activity against human panel NCI-60 (60 carcinoma cell lines) incubated for 48 hrs by SRB assay; assay type: functional
[10] = tested on: UO-31; assay: Antiproliferative activity against human UO-31 cells assessed as mean cell growth at 10 uM incubated for 48 hrs by SRB assay relative to control; assay type: functional
[11] = tested on: SK-MEL-5; assay: Antiproliferative activity against human SK-MEL-5 cells assessed as mean cell growth at 10 uM incubated for 48 hrs by SRB assay relative to control; assay type: functional
[12] = tested on: NCI-H522; assay: Antiproliferative activity against human NCI-H522 cells assessed as mean cell growth at 10 uM incubated for 48 hrs by SRB assay relative to control; assay type: functional
[13] = tested on: MDA-MB-468; assay: Antiproliferative activity against human MDA-MB-468 cells assessed as mean cell growth at 10 uM incubated for 48 hrs by SRB assay relative to control; assay type: functional
[14] = tested on: DU-145; assay: Antiproliferative activity against human DU-145 cells assessed as mean cell growth at 10 uM incubated for 48 hrs by SRB assay relative to control; assay type: functional
[15] = tested on: A498; assay: Antiproliferative activity against human A498 cells assessed as mean cell growth at 10 uM incubated for 48 hrs by SRB assay relative to control; assay type: functional
[16] = tested on: SK-OV-3; assay: Antiproliferative activity against human SK-OV-3 cells assessed as mean cell growth at 10 uM incubated for 48 hrs by SRB assay relative to control; assay type: functional

| Compound | Activity [1] | GI [8] | GI50 [9] | LC50 [9] | also measured |
| --- | --- | --- | --- | --- | --- |
| CN1C(=O)N(C)C2C1NN=c1s/c(=C\c3ccc([N+](=O)[O-])cc3)c(=O)n12 (configuration not stated) | 58% |  |  |  |  |
| CCN1C(=O)N(CC)C2Nn3c(s/c(=C\c4ccc(Br)cc4)c3=O)=NC21 (configuration not stated) |  |  |  |  | Activity [2]: 95% |
| CN1C(=O)N(C)C2Nn3c(s/c(=C\c4cccc([N+](=O)[O-])c4)c3=O)=NC21 (configuration not stated) |  |  |  |  | Activity [3]: 92% |
| CN1C(=O)N(C)C2C1NN=c1s/c(=C\c3ccccc3)c(=O)n12 (configuration not stated) | 41% |  |  |  |  |
| CCN1C(=O)N(CC)C2C1NN=c1s/c(=C\c3ccc(F)cc3)c(=O)n12 (configuration not stated) |  | >81.3 µM | 1680 nM | > 97800 nM | GI50 [4]: 80 nM; Cell growth relative to control [5]: 21%; GI50 [6]: 400 nM; GI50 [7]: 80 nM |
| CCN1C(=O)N(CC)C2C1NN=c1s/c(=C\c3ccccc3F)c(=O)n12 (configuration not stated) |  | >63.3 µM | 240 nM | > 95500 nM | GI50 [4]: 3.2 nM; Cell growth relative to control [5]: 18%; GI50 [6]: 16 nM; GI50 [7]: 16 nM |
| CCN1C(=O)N(CC)C2Nn3c(s/c(=C\c4ccccc4F)c3=O)=NC21 (configuration not stated) | 41% |  |  |  |  |
| CCN1C(=O)N(CC)C2Nn3c(s/c(=C\c4ccc(Cl)cc4Cl)c3=O)=NC21 (configuration not stated) | 40% |  |  |  |  |
| CN1C(=O)N(C)C2Nn3c(s/c(=C\c4ccc(Br)cc4)c3=O)=NC21 (configuration not stated) |  |  |  |  | Activity [10]: 98% |
| CCN1C(=O)N(CC)C2C1NN=c1s/c(=C\c3ccc(OC)cc3)c(=O)n12 (configuration not stated) |  | >71.4 µM | 2280 nM | > 95500 nM | GI50 [4]: 16 nM; Cell growth relative to control [5]: 19%; GI50 [6]: 400 nM; GI50 [7]: 400 nM |
| COc1ccc(/C=c2\sc3n(c2=O)NC2C(N=3)N(C)C(=O)N2C)cc1 (configuration not stated) |  |  |  |  | Activity [10]: 98% |
| CN1C(=O)N(C)C2C1NN=c1s/c(=C\c3ccc(Cl)cc3Cl)c(=O)n12 (configuration not stated) |  | >78 µM | 650 nM | > 100000 nM | GI50 [4]: 80 nM; Cell growth relative to control [5]: 27%; GI50 [6]: 80 nM; GI50 [7]: 80 nM |
| COc1cccc2c1C(=O)c1c(O)c3c(c(O)c1C2=O)C[C@@](O)(C(C)=O)C[C@@H]3O[C@H]1C[C@H](N)[C@H](O)[C@H](C)O1 [DAUNORUBICIN] |  |  |  |  | Activity [11]: -28% |
| CC[C@@]1(O)C(=O)OCc2c1cc1n(c2=O)Cc2cc3ccccc3nc2-1 [CAMPTOTHECIN] |  |  |  |  | Activity [11]: -27% |
| CCN1C(=O)N(CC)C2C1NN=c1s/c(=C\c3cccc(F)c3)c(=O)n12 (configuration not stated) | 23% | >81.2 µM | 2450 nM | > 99100 nM | GI50 [4]: 80 nM; GI50 [6]: 80 nM; GI50 [7]: 80 nM |
| CCN1C(=O)N(CC)C2Nn3c(s/c(=C\c4ccc(C(F)(F)F)cc4)c3=O)=NC21 (configuration not stated) |  |  |  |  | Activity [10]: 100% |
| CCN1C(=O)N(CC)C2Nn3c(s/c(=C\c4ccc(F)cc4)c3=O)=NC21 (configuration not stated) |  |  |  |  | Activity [12]: 101% |
| CN1C(=O)N(C)C2Nn3c(s/c(=C\c4ccccc4F)c3=O)=NC21 (configuration not stated) | 69% |  |  |  |  |
| CCN1C(=O)N(CC)C2Nn3c(s/c(=C\c4ccc([N+](=O)[O-])cc4)c3=O)=NC21 (configuration not stated) |  |  |  |  | Activity [13]: 67% |
| CN1C(=O)N(C)C2Nn3c(s/c(=C\c4ccc(Cl)cc4Cl)c3=O)=NC21 (configuration not stated) | 56% |  |  |  |  |
| CCN1C(=O)N(CC)C2C1NN=c1s/c(=C\c3ccccc3)c(=O)n12 (configuration not stated) |  | >84.6 µM | 2290 nM | > 97600 nM | GI50 [4]: 80 nM; Cell growth relative to control [5]: 19%; GI50 [6]: 80 nM; GI50 [7]: 80 nM |
| CCN1C(=O)N(CC)C2C1NN=c1s/c(=C\c3ccc(C(F)(F)F)cc3)c(=O)n12 (configuration not stated) |  | >65.4 µM | 610 nM | > 96600 nM | GI50 [4]: 2000 nM; Cell growth relative to control [5]: 19%; GI50 [6]: 2000 nM; GI50 [7]: 2000 nM |

| Compound | Activity [1] | GI [8] | GI50 [9] | LC50 [9] | also measured |
| --- | --- | --- | --- | --- | --- |
| COc1ccc(/C=c2\sc3n(c2=O)C2C(NN=3)N(C)C(=O)N2C)cc1 (configuration not stated) | 24% | >83.8 µM | 7320 nM | > 100000 nM | GI50 [4]: 400 nM; GI50 [6]: 2000 nM; GI50 [7]: 400 nM |
| CN1C(=O)N(C)C2C1NN=c1s/c(=C\c3ccc(Br)cc3)c(=O)n12 (configuration not stated) | 29% |  |  |  |  |
| CCN1C(=O)N(CC)C2C1NN=c1s/c(=C\c3ccccc3Br)c(=O)n12 (configuration not stated) |  | >38.3 µM | 920 nM | > 87500 nM | Cell growth relative to control [5]: 21% |
| COc1cccc2c1C(=O)c1c(O)c3c(c(O)c1C2=O)C[C@@](O)(C(=O)CO)C[C@@H]3O[C@H]1C[C@H](N)[C@H](O)[C@H](C)O1 [DOXORUBICIN] |  |  |  |  | Activity [11]: -20% |
| CCN1C(=O)N(CC)C2C1NN=c1s/c(=C\c3ccc(Br)cc3)c(=O)n12 (configuration not stated) |  | >80.5 µM | 2570 nM | > 100000 nM | GI50 [4]: 400 nM; Cell growth relative to control [5]: 19%; GI50 [6]: 80 nM; GI50 [7]: 80 nM |
| CC(=O)O[C@H]1C(=O)[C@@]2(C)[C@H]([C@H](OC(=O)c3ccccc3)[C@]3(O)C[C@H](OC(=O)[C@H](O)[C@@H](NC(=O)c4ccccc4)c4ccccc4)C(C)=C1C3(C)C)[C@]1(OC(C)=O)CO[C@@H]1C[C@@H]2O [PACLITAXEL] |  |  |  |  | Activity [14]: 15% |
| CN1C(=O)N(C)C2Nn3c(s/c(=C\c4ccccc4)c3=O)=NC21 (configuration not stated) |  |  |  |  | Activity [15]: 97% |
| CCN1C(=O)N(CC)C2Nn3c(s/c(=C\c4ccccc4Br)c3=O)=NC21 (configuration not stated) | 22% | >53.6 µM | 2430 nM | > 95000 nM |  |
| CN1C(=O)N(C)C2Nn3c(s/c(=C\c4ccc([N+](=O)[O-])cc4)c3=O)=NC21 (configuration not stated) |  |  |  |  | Activity [15]: 99% |
| CN1C(=O)N(C)C2C1NN=c1s/c(=C\c3ccc(C(F)(F)F)cc3)c(=O)n12 (configuration not stated) | 26% | >72.2 µM | 4210 nM | > 97700 nM |  |
| CN1C(=O)N(C)C2Nn3c(s/c(=C\c4ccc(F)cc4)c3=O)=NC21 (configuration not stated) |  |  |  |  | Activity [16]: 103% |
| CN1C(=O)N(C)C2Nn3c(s/c(=C\c4ccc(C(F)(F)F)cc4)c3=O)=NC21 (configuration not stated) |  |  |  |  | Activity [2]: 102% |
| CCN1C(=O)N(CC)C2C1NN=c1s/c(=C\c3ccc([N+](=O)[O-])cc3)c(=O)n12 (configuration not stated) |  | >63 µM | 1040 nM | > 98600 nM | GI50 [4]: 400 nM; Cell growth relative to control [5]: 26%; GI50 [6]: 400 nM; GI50 [7]: 400 nM |
| CN1C(=O)N(C)C2C1NN=c1s/c(=C\c3cccc([N+](=O)[O-])c3)c(=O)n12 (configuration not stated) | 88% |  |  |  |  |
| CCN1C(=O)N(CC)C2Nn3c(s/c(=C\c4ccc(OC)cc4)c3=O)=NC21 (configuration not stated) | 48% |  |  |  |  |
| CCN1C(=O)N(CC)C2Nn3c(s/c(=C\c4cccc([N+](=O)[O-])c4)c3=O)=NC21 (configuration not stated) | 42% |  |  |  |  |
| CN1C(=O)N(C)C2C1NN=c1s/c(=C\c3ccccc3F)c(=O)n12 (configuration not stated) |  | >75.9 µM | 610 nM | > 97600 nM | GI50 [4]: 16 nM; Cell growth relative to control [5]: 21%; GI50 [6]: 400 nM; GI50 [7]: 80 nM |
| CCN1C(=O)N(CC)C2Nn3c(s/c(=C\c4cccc(F)c4)c3=O)=NC21 (configuration not stated) | 65% |  |  |  |  |
| CCN1C(=O)N(CC)C2Nn3c(s/c(=C\c4ccccc4)c3=O)=NC21 (configuration not stated) | 67% |  |  |  |  |
| CN1C(=O)N(C)C2C1NN=c1s/c(=C\c3ccc(F)cc3)c(=O)n12 (configuration not stated) |  | >81.5 µM | 3470 nM | > 97600 nM | Cell growth relative to control [5]: 28% |
| CCN1C(=O)N(CC)C2C1NN=c1s/c(=C\c3cccc([N+](=O)[O-])c3)c(=O)n12 (configuration not stated) |  | >83.1 µM | 2020 nM | > 98700 nM | GI50 [4]: 80 nM; Cell growth relative to control [5]: 23%; GI50 [6]: 400 nM; GI50 [7]: 400 nM |
